Here are results for one molecule from patent publication US10984891B2, “Methods for global RNA-chromatin interactome discovery” (The Regents of the University of California, priority 2016, dated 2021).

One experiment has as its system MM.1S cells. Conditions: cited from earlier work.
A further experiment concerns MDA-MB-231 cells. The experiment is described as follows: GRO-seq (global nuclear run-on), transcriptional response to JQ1. Format: cell-based, Human. Conditions: 500 nM JQ1, 6 h vs 0.05% DMSO, FIG. 12K. The protocol:
Cell culture. MDA-MB-231 breast cancer cells (HTB-26 ATCC) and MM.1S multiple myeloma cells were grown at 37° C. and 5% CO2. MDA-MB-231 cells were cultured in Dulbecco's Modified Eagle Medium (Thermo Fisher Sci.) supplemented with 10% fetal bovine serum. MM.1S cells were cultured in RPMI-1640 supplemented with 1% GlutaMAX (Thermo Fisher Sci.) and 10% fetal bovine serum. […] Drosophila S2 cells were cultured in Schneider's Drosophila Medium (Thermo Fisher Sci.) supplemented with 10% fetal bovine serum and 2 mM L-glutamine (Thermo Fisher Sci.), at ambient temperature in ambient CO2.
Functional perturbation of general enhancer activities. […] To quantify transcription activities in an unbiased manner, GRO-seq read densities were initially normalized using total uniquely-mapped read numbers to remove variations between libraries. To minimize the bias introduced by promoter pausing or gene length, only reads that were aligned within the 2 Kb region 1 Kb downstream from the TSS were selected to calculate the transcription activity. For multi-isoform genes, the transcript with highest read counts within the 2 Kb window was selected to represent the gene's transcription activity. Public datasets analyzed. The data of RNA Pol II ChIP-seq for MDA-MB-231 cells were obtained from European Genome-phenome Archive (www.ebi.ac.uk/ega). […]

`Cc1sc2c(c1C)C(c1ccc(Cl)cc1)=N[C@@H](CC(=O)OC(C)(C)C)c1nnc(C)n1-2` [JQ1]: in the experiment with MM.1S cells (GRID-seq inferred connectivity within 50 Kb range, same without range, FIG. 14E, F), the “response of gene expression to JQ1: genes associated with at least one super-enhancer vs only typical enhancers” value is recorded as “more responsive”. Moreover, the “response of gene expression to JQ1: genes associated with top 10% vs bottom 10% RNA-decorated enhancers” value in the experiment with MM.1S cells (genes within ±50 Kb of enhancers, FIG. 13E) was “more responsive”. In addition, the “transcriptional response to JQ1 (GRO-seq): genes associated with top 10% vs bottom 10% RNA-decorated enhancers” value in the experiment with MDA-MB-231 cells is “The same conclusions were reached”.
